Data published in patent US20070116781A1, “Hydrogen Cyanamide Pesticide Formulations” (priority 2005, published 2007).

Key:
reniform nematodes = assay: Nematicidal activity in covered pots of naturally infested silt loam, soybean planted after 12 days; assay type: in vivo, Rotylenchulus reniformus; settings: C2H5CO2H 250 mg/kg soil
Method: (§1) In this study, the soil was naturally infested with four species of nematodes, two of which were deleterious and two beneficial, and observations were made of both the nematode survival and the growth of the soybean plants.
(§2) Stock solutions of hydrogen cyanamide at 1.0% by weight and propionic acid at 5.0% by weight, both in water, were prepared, the hydrogen cyanamide from a phosphate-buffered 50% aqueous solution. Planting pots measuring 10 cm in diameter, each containing 1 kg of soil, were used. The soil was silt loam from a cotton field, pH 6.2, CEC<10 meq/100 g soil, organic matter<1.0%. The treatment chemicals were combined in various dilutions such that 100 mL of the combined dilutions contained the desired amount of each chemical for each test. The combined dilutions were then applied to the soil surface in each pot, at 100 mL of combined dilution per pot. The dilutions were selected to achieve target application rates expressed in milligrams of the treatment chemical per kilogram of soil, with 1 milligram of treatment chemical per kilogram of soil being approximately equal to 2 kilograms of the chemical per hectare of soil or 2 pounds of the chemical per acre of soil.
(§3) Immediately after the treatment chemicals were applied, each pot was covered by a thick (1.5 mil), clear, low-density polyethylene bag. After twelve days, the bags were removed and soil samples were taken from each pot for nematological analysis by the salad bowl technique of Rodriguez-Kabana, R., and M. H. Pope, Nematropica, 11: 175-186 (1981). The results of these analyses are listed in Table I as pre-plant test results. The results for the two deleterious nematodes are also shown as plots of the number of nematodes vs. the hydrogen cyanamide application rate in FIGS. 1 and 2.
(§4) After the polyethylene bags were removed, each pot was planted with Hutcheson soybean seeds at 5 seeds per pot, and the seeds were allowed to germinate and the plants to grow for 45 days. The resulting plants were then removed from the pots, the root systems were washed, and the number of plants in each pot was determined. The weights of both fresh shoots and roots were also determined as well as the shoot height and the relative health of the root system, using a subjective index. Soil samples were also collected, and the soil and roots were incubated to determine nematode populations. Treatments were arranged in randomized complete block design with seven replications per treatment, and statistical evaluation of the data was performed with analyses of variance (ANOVA) and standard regression procedures. Fischer's Least Significant Difference at p 0.05 was calculated when appropriate. The results of these tests are listed as final test results in Tables II, III, and IV, with nematode populations in the soil listed in Table II, the nematode populations in the root systems in Table III, and the plant and root parameters of the soybean shoots in Table IV.

spiral nematodes = assay: as above; assay type: in vivo, Helicotylenchus dihystera; settings: C2H5CO2H 250 mg/kg soil
Method: as §1, §2, §3, §4

microbivorous nematodes = assay: Effect on beneficial nematodes in covered pots of silt loam; assay type: in vivo; settings: microbivorous nematodes, in vivo, pH 6.2
Method: as §1, §2, §3, §4

all weeds = assay: Herbicidal activity, phosphate-free cyanamide and propionic acid, post-emergence, uncovered pots; assay type: in vivo
From the text: (§5) The procedures in this example differed from those of Example 2, however, by the use of hydrogen cyanamide crystals free of phosphate ion to prepare the aqueous hydrogen cyanamide solution, by the use of post-emergence application, and by the omission of any covering of the pots during any part of the test. Observations were made for total weed growth, and individual observations were also made for yellow nutsedge, crabgrass, sicklepod, and momingglory. Stock solutions of hydrogen cyanamide at 1.25% by weight and propionic acid at 5.0% by weight, both in water, were prepared as before, except that the hydrogen cyanamide solution, as noted above, was prepared by dissolving hydrogen cyanamide crystals in water in the absence of phosphate ion. […] The weeds were allowed to grow for three weeks before the treatment chemicals were applied. […] Data analyses were performed in the same manner as Examples 1 and 2. Table IX lists the results in weeds per pot for all weeds, Table X for yellow nutsedge, Table XI for crabgrass, Table XII for sicklepod, and Table XIII for morningglory, all both with propionic acid alone at various application […]

crabgrass = assay: as above; assay type: in vivo, Digitaria sanguinalis
From the text: as §5

sicklepod = assay: as above; assay type: in vivo, Senna obtusifolia
From the text: The procedures in this example differed from those of Example 2, however, by the use of hydrogen cyanamide crystals free of phosphate ion to prepare the aqueous hydrogen cyanamide solution, by the use of post-emergence application, and by the omission of any covering of the pots during any part of the test. Observations were made for total weed growth, and individual observations were also made for yellow nutsedge, crabgrass, sicklepod, and momingglory. Stock solutions of hydrogen cyanamide at 1.25% by weight and propionic acid at 5.0% by weight, both in water, were prepared as before, except that the hydrogen cyanamide solution, as noted above, was prepared by dissolving hydrogen cyanamide crystals in water in the absence of phosphate ion. […] The weeds were allowed to grow for three weeks before the treatment chemicals were applied. […] Data analyses were performed in the same manner as Examples 1 and 2. Table IX lists the results in weeds per pot for all weeds, Table X for yellow nutsedge, Table XI for crabgrass, Table XII for sicklepod, and Table XIII for morningglory, all both with propionic acid alone at various application rates and with […]

[1] = 12 d after treatment, pre-plant
[2] = 57 d after treatment, 45 d after planting
[3] = 6 d after treatment, C2H5CO2H 100 mg/kg soil
[4] = 6 d after treatment, C2H5CO2H 200 mg/kg soil
[5] = 6 d after treatment, C2H5CO2H 300 mg/kg soil
[6] = 6 d after treatment, C2H5CO2H 400 mg/kg soil
[7] = 6 d after treatment, C2H5CO2H 500 mg/kg soil
[8] = 13 d after treatment, C2H5CO2H 100 mg/kg soil
[9] = 13 d after treatment, C2H5CO2H 200 mg/kg soil
[10] = 13 d after treatment, C2H5CO2H 300 mg/kg soil
[11] = 13 d after treatment, C2H5CO2H 400 mg/kg soil
[12] = 13 d after treatment, C2H5CO2H 500 mg/kg soil
[13] = 20 d after treatment, C2H5CO2H 100 mg/kg soil
[14] = 20 d after treatment, C2H5CO2H 200 mg/kg soil
[15] = 20 d after treatment, C2H5CO2H 300 mg/kg soil
[16] = 20 d after treatment, C2H5CO2H 400 mg/kg soil
[17] = 20 d after treatment, C2H5CO2H 500 mg/kg soil

`CCC(=O)O` [C2H5CO2H, propionic acid] was tested, and the “Surviving Nematodes: Reniform” value (reniform nematodes; [1]) was 280 per 100 mL of soil, the “Surviving Nematodes: Reniform” value (reniform nematodes; [2]) was 328 per 100 mL of soil and the “Surviving Nematodes in Root System: Reniform” value (reniform nematodes; 57 d after treatment) was 64.7 Per Pot. For the same molecule, the “Surviving Nematodes: Spiral” value (spiral nematodes; [1]) was 47 per 100 mL of soil, the “Surviving Nematodes: Spiral” value (spiral nematodes; [2]) was 12.4 per 100 mL of soil and the “Surviving Nematodes in Root System: Spiral” value (spiral nematodes; 57 d after treatment) was 25.9 Per Pot. For the same molecule, the “Surviving Nematodes: Microbivorous” value (microbivorous nematodes; 12 d) was 66 per 100 mL of soil, the “Surviving Nematodes in Root System: Microbivorous” value (microbivorous nematodes; 57 d) was 96 Per Pot and the “Surviving Nematodes: Microbivorous” value (microbivorous nematodes; 57 d) was 45 per 100 mL of soil. For the same molecule, the “Weeds Per Pot: All Weeds” value (all weeds; [3]) was 22.4, the “Weeds Per Pot: All Weeds” value (all weeds; [4]) was 12.6 and the “Weeds Per Pot: All Weeds” value (all weeds; [5]) was 5.7. For the same molecule, the “Weeds Per Pot: All Weeds” value (all weeds; [6]) was 4, the “Weeds Per Pot: All Weeds” value (all weeds; [7]) was 3.4 and the “Weeds Per Pot: All Weeds” value (all weeds; [8]) was 24.4. The “Weeds Per Pot: All Weeds” value (all weeds; [9]) was 14.9, the “Weeds Per Pot: All Weeds” value (all weeds; [10]) was 8.6 and the “Weeds Per Pot: All Weeds” value (all weeds; [11]) was 7.6. For the same molecule, the “Weeds Per Pot: All Weeds” value (all weeds; [12]) was 6.7, the “Weeds Per Pot: All Weeds” value (all weeds; [13]) was 25.1 and the “Weeds Per Pot: All Weeds” value (all weeds; [14]) was 15.9. For the same molecule, the “Weeds Per Pot: All Weeds” value (all weeds; [15]) was 10, the “Weeds Per Pot: All Weeds” value (all weeds; [16]) was 8.4 and the “Weeds Per Pot: All Weeds” value (all weeds; [17]) was 8. The “Herbicidal activity of propionic acid alone” value (all weeds; post-emergence, uncovered pots) was “demonstrated herbicidal activity on its own”, the “Weeds Per Pot: Crabgrass” value (crabgrass; [3]) was 9.9 and the “Weeds Per Pot: Crabgrass” value (crabgrass; [4]) was 5.1. The “Weeds Per Pot: Crabgrass” value (crabgrass; [5]) was 3, the “Weeds Per Pot: Crabgrass” value (crabgrass; [6]) was 0.6 and the “Weeds Per Pot: Crabgrass” value (crabgrass; [7]) was 0.6. The “Weeds Per Pot: Crabgrass” value (crabgrass; [8]) was 10.6, the “Weeds Per Pot: Crabgrass” value (crabgrass; [9]) was 5.4 and the “Weeds Per Pot: Crabgrass” value (crabgrass; [10]) was 3.9. The “Weeds Per Pot: Crabgrass” value (crabgrass; [11]) was 1.3, the “Weeds Per Pot: Crabgrass” value (crabgrass; [12]) was 0.7 and the “Weeds Per Pot: Crabgrass” value (crabgrass; [13]) was 11.6. For the same molecule, the “Weeds Per Pot: Crabgrass” value (crabgrass; [14]) was 6, the “Weeds Per Pot: Crabgrass” value (crabgrass; [15]) was 3.4 and the “Weeds Per Pot: Crabgrass” value (crabgrass; [16]) was 1.3. For the same molecule, the “Weeds Per Pot: Crabgrass” value (crabgrass; [17]) was 1.6, the “Weeds Per Pot: Sicklepod” value (sicklepod; [3]) was 3.1 and the “Weeds Per Pot: Sicklepod” value (sicklepod; [4]) was 1.3. The “Weeds Per Pot: Sicklepod” value (sicklepod; [5]) was 0.9, the “Weeds Per Pot: Sicklepod” value (sicklepod; [6]) was 0.4 and the “Weeds Per Pot: Sicklepod” value (sicklepod; [7]) was 0.7. The “Weeds Per Pot: Sicklepod” value (sicklepod; [8]) was 3.6, the “Weeds Per Pot: Sicklepod” value (sicklepod; [9]) was 2.4 and the “Weeds Per Pot: Sicklepod” value (sicklepod; [10]) was 1.4. The “Weeds Per Pot: Sicklepod” value (sicklepod; [11]) was 1.6, the “Weeds Per Pot: Sicklepod” value (sicklepod; [12]) was 2 and the “Weeds Per Pot: Sicklepod” value (sicklepod; [13]) was 3.1. For the same molecule, the “Weeds Per Pot: Sicklepod” value (sicklepod; [14]) was 2.3, the “Weeds Per Pot: Sicklepod” value (sicklepod; [15]) was 1.9 and the “Weeds Per Pot: Sicklepod” value (sicklepod; [16]) was 1.9. The “Weeds Per Pot: Sicklepod” value (sicklepod; [17]) was 2.1.
